Where two headings read alike, the source gives them in different places. Marks after values point to notes of the source that are not given here.
Test system: biomarker (antibody) in serum samples from patients with symptoms of tuberculosis
Assay type: binding, human

## CCCCCCCCCCCCCCCCCCCCCC[C@@H](C(=O)OC[C@H]1O[C@H](OC)[C@@H](O)[C@@H]1O)[C@H](O)CCCCCCCCCCCCCCCCC[C@H]1C[C@H]1CCCCCCCCCCCCCCCC[C@@H](OC)[C@@H](C)CCCCCCCCCCCCCCCCCC [Antigen E]
Serum sample 1 TB+
  ELISA absorbance at 492 nm: 0.42*
Serum sample 2 TB+
  ELISA absorbance at 492 nm: 0.36*
Serum sample 3 TB+
  ELISA absorbance at 492 nm: 0.77*
Serum sample 4 TB+
  ELISA absorbance at 492 nm: 0.90*
Serum sample 5 TB+
  ELISA absorbance at 492 nm: 0.38*
Serum sample 6 TB+
  ELISA absorbance at 492 nm: 0.54*
Serum sample 7 TB+
  ELISA absorbance at 492 nm: 1.15*
Serum sample 8 TB+
  ELISA absorbance at 492 nm: 0.69*
Serum sample 9 TB+
  ELISA absorbance at 492 nm: 0.56*
Serum sample 10 TB−
  ELISA absorbance at 492 nm: 0.35
Serum sample 11 TB−
  ELISA absorbance at 492 nm: 0.45*
Serum sample 12 TB−
  ELISA absorbance at 492 nm: 0.29
Serum sample 13 TB−
  ELISA absorbance at 492 nm: 0.34
Serum sample 14 TB−
  ELISA absorbance at 492 nm: 0.58*
Serum sample 15 TB−
  ELISA absorbance at 492 nm: 0.37*
Serum sample 16 TB−
  ELISA absorbance at 492 nm: 0.42*
Serum sample 17 TB−
  ELISA absorbance at 492 nm: 0.47*
Serum sample 18 TB−
  ELISA absorbance at 492 nm: 0.25
Serum sample 19 TB−
  ELISA absorbance at 492 nm: 0.31
Serum sample 20 TB−
  ELISA absorbance at 492 nm: 0.38*
Serum sample 21 TB−
  ELISA absorbance at 492 nm: 0.35
Serum sample 22 TB−
  ELISA absorbance at 492 nm: 0.24
Serum sample 23 TB−
  ELISA absorbance at 492 nm: 0.35*
Serum sample 24 TB−
  ELISA absorbance at 492 nm: 0.26
Serum sample 25 TB−
  ELISA absorbance at 492 nm: 0.18
Serum sample 26 TB−
  ELISA absorbance at 492 nm: 0.24
Serum sample 27 TB−
  ELISA absorbance at 492 nm: 0.33
Serum sample 28 TB−
  ELISA absorbance at 492 nm: 0.23
Serum sample 29 TB−
  ELISA absorbance at 492 nm: 0.29
Serum sample 30 TB−
  ELISA absorbance at 492 nm: 0.24
Serum sample 31 TB−
  ELISA absorbance at 492 nm: 0.30
Serum sample 32 TB−
  ELISA absorbance at 492 nm: 0.57*
Serum sample 33 TB−
  ELISA absorbance at 492 nm: 0.46*
Serum sample 34 TB−
  ELISA absorbance at 492 nm: 0.51*
Serum sample 35 TB−
  ELISA absorbance at 492 nm: 0.26
Serum sample 36 TB−
  ELISA absorbance at 492 nm: 0.23
Serum sample 37 TB−
  ELISA absorbance at 492 nm: 0.41*
Serum sample 38 TB−
  ELISA absorbance at 492 nm: 0.40*
Serum sample 39 TB−
  ELISA absorbance at 492 nm: 0.31
Serum sample 40 TB−
  ELISA absorbance at 492 nm: 0.25
Serum sample 41 TB−
  ELISA absorbance at 492 nm: 0.33
Serum sample 42 TB−
  ELISA absorbance at 492 nm: 0.42*
Serum sample 43 TB−
  ELISA absorbance at 492 nm: 0.29
Serum sample 44 TB−
  ELISA absorbance at 492 nm: 0.67*
Serum sample 45 TB−
  ELISA absorbance at 492 nm: 0.35*
Serum sample 46 TB−
  ELISA absorbance at 492 nm: 0.26
Serum sample 47 TB−
  ELISA absorbance at 492 nm: 0.41*
Serum sample 48 TB−
  ELISA absorbance at 492 nm: 0.17
Serum sample 49 TB−
  ELISA absorbance at 492 nm: 0.25
Serum sample 50 TB−
  ELISA absorbance at 492 nm: 0.30
Serum sample 51 TB−
  ELISA absorbance at 492 nm: 0.18
Serum sample 52 TB−
  ELISA absorbance at 492 nm: 0.26
Serum sample 53 TB−
  ELISA absorbance at 492 nm: 0.25
Serum sample 54 TB−
  ELISA absorbance at 492 nm: 0.20
Serum sample 55 TB−
  ELISA absorbance at 492 nm: 0.22
Serum sample 56 TB−
  ELISA absorbance at 492 nm: 0.31
Serum sample 57 TB−
  ELISA absorbance at 492 nm: 0.29
Serum sample 58 TB−
  ELISA absorbance at 492 nm: 0.28
Serum sample 59 TB−
  ELISA absorbance at 492 nm: 0.25
Serum sample 60 TB−
  ELISA absorbance at 492 nm: 0.29
Serum sample 61 TB−
  ELISA absorbance at 492 nm: 0.34
Serum sample 62 TB−
  ELISA absorbance at 492 nm: 0.35*
Serum sample 63 TB−
  ELISA absorbance at 492 nm: 0.22
Serum sample 64 TB−
  ELISA absorbance at 492 nm: 3.98*

## CCCCCCCCCCCCCCCCCCCCCCCC[C@@H](C(=O)OC[C@H]1O[C@H](OC)[C@@H](O)[C@@H]1O)[C@H](O)CCCCCCCCCCC[C@H]1CC1CCCCCCCCCCCCCC[C@H]1C[C@H]1CCCCCCCCCCCCCCCCCCCC (some centres unmarked) [Antigen F]
Serum sample 1 TB+
  ELISA absorbance at 492 nm: 0.74*
Serum sample 2 TB+
  ELISA absorbance at 492 nm: 0.76*
Serum sample 3 TB+
  ELISA absorbance at 492 nm: 0.99*
Serum sample 4 TB+
  ELISA absorbance at 492 nm: 0.97*
Serum sample 5 TB+
  ELISA absorbance at 492 nm: 0.99*
Serum sample 6 TB+
  ELISA absorbance at 492 nm: 1.39*
Serum sample 7 TB+
  ELISA absorbance at 492 nm: 1.97*
Serum sample 8 TB+
  ELISA absorbance at 492 nm: 1.67*
Serum sample 9 TB+
  ELISA absorbance at 492 nm: 1.09*
Serum sample 10 TB−
  ELISA absorbance at 492 nm: 0.59
Serum sample 11 TB−
  ELISA absorbance at 492 nm: 0.92*
Serum sample 12 TB−
  ELISA absorbance at 492 nm: 0.84*
Serum sample 13 TB−
  ELISA absorbance at 492 nm: 0.60
Serum sample 14 TB−
  ELISA absorbance at 492 nm: 1.30*
Serum sample 15 TB−
  ELISA absorbance at 492 nm: 0.64
Serum sample 16 TB−
  ELISA absorbance at 492 nm: 0.56
Serum sample 17 TB−
  ELISA absorbance at 492 nm: 0.81*
Serum sample 18 TB−
  ELISA absorbance at 492 nm: 0.68
Serum sample 19 TB−
  ELISA absorbance at 492 nm: 0.71*
Serum sample 20 TB−
  ELISA absorbance at 492 nm: 1.03*
Serum sample 21 TB−
  ELISA absorbance at 492 nm: 0.61
Serum sample 22 TB−
  ELISA absorbance at 492 nm: 0.66
Serum sample 23 TB−
  ELISA absorbance at 492 nm: 0.81*
Serum sample 24 TB−
  ELISA absorbance at 492 nm: 0.62
Serum sample 25 TB−
  ELISA absorbance at 492 nm: 0.21
Serum sample 26 TB−
  ELISA absorbance at 492 nm: 0.72
Serum sample 27 TB−
  ELISA absorbance at 492 nm: 0.61
Serum sample 28 TB−
  ELISA absorbance at 492 nm: 0.38
Serum sample 29 TB−
  ELISA absorbance at 492 nm: 0.41
Serum sample 30 TB−
  ELISA absorbance at 492 nm: 0.39
Serum sample 31 TB−
  ELISA absorbance at 492 nm: 0.51
Serum sample 32 TB−
  ELISA absorbance at 492 nm: 0.91*
Serum sample 33 TB−
  ELISA absorbance at 492 nm: 0.42
Serum sample 34 TB−
  ELISA absorbance at 492 nm: 0.49
Serum sample 35 TB−
  ELISA absorbance at 492 nm: 0.38
Serum sample 36 TB−
  ELISA absorbance at 492 nm: 0.28
Serum sample 37 TB−
  ELISA absorbance at 492 nm: 0.55
Serum sample 38 TB−
  ELISA absorbance at 492 nm: 0.52
Serum sample 39 TB−
  ELISA absorbance at 492 nm: 0.35
Serum sample 40 TB−
  ELISA absorbance at 492 nm: 0.35
Serum sample 41 TB−
  ELISA absorbance at 492 nm: 0.66
Serum sample 42 TB−
  ELISA absorbance at 492 nm: 0.55
Serum sample 43 TB−
  ELISA absorbance at 492 nm: 0.30
Serum sample 44 TB−
  ELISA absorbance at 492 nm: 0.98*
Serum sample 45 TB−
  ELISA absorbance at 492 nm: 0.43
Serum sample 46 TB−
  ELISA absorbance at 492 nm: 0.31
Serum sample 47 TB−
  ELISA absorbance at 492 nm: 0.56
Serum sample 48 TB−
  ELISA absorbance at 492 nm: 0.32
Serum sample 49 TB−
  ELISA absorbance at 492 nm: 0.51
Serum sample 50 TB−
  ELISA absorbance at 492 nm: 0.37
Serum sample 51 TB−
  ELISA absorbance at 492 nm: 0.21
Serum sample 52 TB−
  ELISA absorbance at 492 nm: 0.36
Serum sample 53 TB−
  ELISA absorbance at 492 nm: 0.26
Serum sample 54 TB−
  ELISA absorbance at 492 nm: 0.27
Serum sample 55 TB−
  ELISA absorbance at 492 nm: 0.27
Serum sample 56 TB−
  ELISA absorbance at 492 nm: 0.73*
Serum sample 57 TB−
  ELISA absorbance at 492 nm: 0.37
Serum sample 58 TB−
  ELISA absorbance at 492 nm: 0.41
Serum sample 59 TB−
  ELISA absorbance at 492 nm: 0.45
Serum sample 60 TB−
  ELISA absorbance at 492 nm: 0.44
Serum sample 61 TB−
  ELISA absorbance at 492 nm: 0.41
Serum sample 62 TB−
  ELISA absorbance at 492 nm: 0.30
Serum sample 63 TB−
  ELISA absorbance at 492 nm: 0.25
Serum sample 64 TB−
  ELISA absorbance at 492 nm: 0.29

From patent US11162944B2, “Compositions and methods” (priority 2015, dated 2021)
